Test results taken from patent EP4818168A1, “FUSED RING COMPOUND, PHARMACEUTICAL COMPOSITION THEREOF AND USE THEREOF” (priority 2023, dated 2025).
Like-named read-outs stand apart in the source and are kept apart here.

Experiments:
H82 cells = experiment: cells; type: cell-based; settings: Homo sapiens
Procedure, shortened: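 After 6 days' compound treatment at 37 °C (final DMSO 0.1%, RPMI1640/10% FBS), viable H82 cells were quantified by ATP-dependent CellTiter-Glo luminescence. Remaining activity was calculated against DMSO and medium wells, and a sigmoidal fit gave IC50.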

AURKA = target: T1, AURKA (Homo sapiens, UniProt O14965); type: cell-based
T1 construct: endogenous in cells; host or cells: Jurkat cells
T1 sequence (O14965 1-403): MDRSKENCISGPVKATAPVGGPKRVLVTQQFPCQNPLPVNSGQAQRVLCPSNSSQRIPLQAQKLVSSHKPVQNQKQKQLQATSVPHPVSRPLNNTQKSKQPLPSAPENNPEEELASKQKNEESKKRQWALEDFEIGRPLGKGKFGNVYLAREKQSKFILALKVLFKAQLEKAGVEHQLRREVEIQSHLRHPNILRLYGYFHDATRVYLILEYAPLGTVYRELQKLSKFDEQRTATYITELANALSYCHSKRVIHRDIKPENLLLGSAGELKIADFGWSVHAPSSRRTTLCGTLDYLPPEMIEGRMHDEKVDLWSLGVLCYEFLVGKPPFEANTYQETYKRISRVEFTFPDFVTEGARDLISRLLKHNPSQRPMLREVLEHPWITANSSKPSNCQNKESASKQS
Procedure, shortened: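 AURKA degradation read by western blot: band signal, fluorescent or chemiluminescent, curve-fitted to derive DC50. Cells were Jurkat, plated at 1×10^6 cells/500 µL with compound, then lysed and blotted onto nitrocellulose, primary antibody overnight at 4°C.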

[1] = NCI-H82, H82 cells, 4000 cells/well, CellTiter-Glo, read-out: IC50 in H82 Cells
[2] = 100 nM compound, Jurkat cells, 24 h, Table 2
[3] = 1 µM compound, Jurkat cells, 24 h, Table 2
[4] = NCI-H82, read-out: IC50 in H82 Cells

Row | Structure (SMILES) | IC50 (H82 cells; [1]) [nM] | Percentage of AURKA Degradation Induced by 100 nM Compound in Jurkat Cells (AURKA; [2]) | Percentage of AURKA Degradation Induced by 1 µM Compound in Jurkat Cells (AURKA; [3]) | IC50 (H82 cells; [4]) [nM] | Percentage of AURKA Degradation Induced by 100 nM Compound in Jurkat Cells (AURKA) | Percentage of AURKA Degradation Induced by 1 µM Compound in Jurkat Cells (AURKA)
1 | O=C1CCN(c2ccc(N3CCC(F)(CN4CC(=O)N(C56CC(Nc7ncc8c(n7)-c7ccc(Cl)cc7C(c7c(F)cccc7F)=NC8)(C5)C6)C(=O)C4)CC3)nc2)C(=O)N1 [Compound A294] | < 1000 | ++ (30% < Degradation ≤ 70%) | ++ (30% < Degradation ≤ 70%) |  |  | 
2 | N#Cc1cc(N2CCC(=O)NC2=O)ccc1N1CCN(C(=O)C2CCN(c3ccc(Nc4ncc5c(n4)-c4ccc(Cl)cc4C(c4c(F)cccc4F)=NC5)cc3)CC2)CC1 [Compound A296] | < 1000 | +++ (Degradation > 70%) | +++ (Degradation > 70%) |  |  | 
3 | O=C1CCN(c2ccc(N3CC(C4CCN(C(=O)C56CC(Nc7ncc8c(n7)-c7ccc(Cl)cc7C(c7c(F)cccc7F)=NC8)(C5)C6)CC4)C3)nc2)C(=O)N1 [Compound A297] | < 1000 | +++ (Degradation > 70%) | +++ (Degradation > 70%) |  |  | 
4 | O=C1CCN(c2ccc(N3CC4(CC(N5CCN(C67CC(Nc8ncc9c(n8)-c8ccc(Cl)cc8C(c8c(F)cccc8F)=NC9)(C6)C7)C(=O)C5)C4)C3)nc2)C(=O)N1 [Compound A298] | < 1000 | +++ (Degradation > 70%) | +++ (Degradation > 70%) |  |  | 
5 | O=C1CCN(c2ccc(N3CC(O)(CN4CCN(c5ccc(Nc6ncc7c(n6)-c6ccc(Cl)cc6C(c6c(F)cccc6F)=NC7)cc5)C(=O)C4)C3)nc2)C(=O)N1 [Compound A299] |  |  |  | < 1000 | +++ (key: +: Degradation ≤ 30%; ++: 30% < Degradation ≤ 70%; +++: Degradation > 70%) | +++ (key: +: Degradation ≤ 30%; ++: 30% < Degradation ≤ 70%; +++: Degradation > 70%)
6 | O=C1CCN(c2ccc(N3CCC(O)(CN4CCN(c5ccc(Nc6ncc7c(n6)-c6ccc(Cl)cc6C(c6c(F)cccc6F)=NC7)cc5)C(=O)C4)CC3)nc2)C(=O)N1 [Compound A300] |  |  |  | < 1000 | +++ (key: +: Degradation ≤ 30%; ++: 30% < Degradation ≤ 70%; +++: Degradation > 70%) | +++ (key: +: Degradation ≤ 30%; ++: 30% < Degradation ≤ 70%; +++: Degradation > 70%)
7 | CC(C1CCN(c2ccc(N3CCC(=O)NC3=O)cn2)CC1)N1CCN(C23CC(Nc4ncc5c(n4)-c4ccc(Cl)cc4C(c4c(F)cccc4F)=NC5)(C2)C3)C(=O)C1 (stereo not drawn) [Compound A302] | < 1000 | +++ (Degradation > 70%) | +++ (Degradation > 70%) |  |  | 
8 | CP(C)(=O)c1cc(Nc2ncc3c(n2)-c2ccc(Cl)cc2C(c2c(F)cccc2F)=NC3)ccc1N1CCN(C2CCN(c3ccc(N4CCC(=O)NC4=O)cn3)CC2)CC1=O [Compound A303] | < 1000 | +++ (Degradation > 70%) | +++ (Degradation > 70%) |  |  | 
9 | N#Cc1cc(N2CCN(C(=O)C3CCN(c4ccc(Nc5ncc6c(n5)-c5ccc(Cl)cc5C(c5c(F)cccc5F)=NC6)cc4)CC3)CC2)ccc1N1CCC(=O)NC1=O [Compound A304] | < 1000 | +++ (Degradation > 70%) | +++ (Degradation > 70%) |  |  | 
10 | N#Cc1ccc2c(c1)C(c1c(F)cccc1F)=NCc1cnc(Nc3ccc(N4CCN(C5CCN(c6ccc(N7CCC(=O)NC7=O)cn6)CC5)CC4=O)cc3)nc1-2 [Compound A305] | < 1000 | +++ (Degradation > 70%) | +++ (Degradation > 70%) |  |  | 
11 | O=C1CCN(c2ccc(N3CCC(N4CCN(C56CC(Nc7ncc8c(n7)-c7ccc(Cl)cc7C(c7c(F)cccc7F)=NC8)(C5)C6)C(=O)C4)CC3)nc2)C(=O)N1 [Compound A306] | < 1000 | ++ (30% < Degradation ≤ 70%) | +++ (Degradation > 70%) |  |  | 
12 | O=C1CCN(c2ccc(N3CCN(C(=O)C4CN(c5ccc(Nc6ncc7c(n6)-c6ccc(Cl)cc6C(c6c(F)cccc6F)=NC7)cc5)CCO4)CC3)nc2)C(=O)N1 (stereo not drawn) [Compound A308] | < 1000 | +++ (Degradation > 70%) | +++ (Degradation > 70%) |  |  | 
13 | CN1CCN(c2ccc(N3CCC(=O)NC3=O)cn2)CC1C(=O)N1CCN(c2ccc(Nc3ncc4c(n3)-c3ccc(Cl)cc3C(c3c(F)cccc3F)=NC4)cc2)CC1 (stereo not drawn) [Compound A309] | < 1000 | ++ (30% < Degradation ≤ 70%) | ++ (30% < Degradation ≤ 70%) |  |  | 
14 | O=C1CCN(c2ccc(N3CCOC(CN4CCN(C56CC(Nc7ncc8c(n7)-c7ccc(Cl)cc7C(c7c(F)cccc7F)=NC8)(C5)C6)C(=O)C4)C3)nc2)C(=O)N1 (stereo not drawn) [Compound A311] | < 1000 | +++ (Degradation > 70%) | +++ (Degradation > 70%) |  |  | 
15 | CC1(C)CN(C23CC(Nc4ncc5c(n4)-c4ccc(Cl)cc4C(c4c(F)cccc4F)=NC5)(C2)C3)C(=O)CN1CC1CCN(c2ccc(N3CCC(=O)NC3=O)cn2)CC1 [Compound A316] |  |  |  | < 1000 | ++ (key: +: Degradation ≤ 30%; ++: 30% < Degradation ≤ 70%; +++: Degradation > 70%) | ++ (key: +: Degradation ≤ 30%; ++: 30% < Degradation ≤ 70%; +++: Degradation > 70%)
16 | N#Cc1ccc2c(c1)C(c1c(F)cccc1F)=NCc1cnc(Nc3ccc(N4CC(F)(CN5CCN(c6ccc(N7CCC(=O)NC7=O)cn6)CC5)C4)cc3)nc1-2 [Compound A319] | < 1000 | +++ (Degradation > 70%) | +++ (Degradation > 70%) |  |  | 
17 | O=C1CCN(c2ccc(N3CCC(C(=O)N4CCN(c5ccc(Nc6ncc7c(n6)-c6ccc(Cl)cc6C(c6nccs6)=NC7)cc5)CC4)CC3)nc2)C(=O)N1 [Compound A320] | < 1000 | +++ (Degradation > 70%) | +++ (Degradation > 70%) |  |  | 
18 | N#Cc1ccc2c(c1)C(c1nccs1)=NCc1cnc(Nc3ccc(N4CCN(C5CCN(c6ccc(N7CCC(=O)NC7=O)cn6)CC5)CC4=O)cc3)nc1-2 [Compound A322] | < 1000 | +++ (Degradation > 70%) | +++ (Degradation > 70%) |  |  | 
19 | N#Cc1nc(N2CCN(C(=O)C3CCN(c4ccc(Nc5ncc6c(n5)-c5ccc(Cl)cc5C(c5c(F)cccc5F)=NC6)cc4)CC3)CC2)ccc1N1CCC(=O)NC1=O [Compound A323] | < 1000 | +++ (Degradation > 70%) | +++ (Degradation > 70%) |  |  | 
20 | O=C1CCN(c2ccc(N3CCN(C(=O)[C@@H]4CN(c5ccc(Nc6ncc7c(n6)-c6ccc(Cl)cc6C(c6c(F)cccc6F)=NC7)cc5)CCO4)CC3)nc2)C(=O)N1 [Compound A324] | < 1000 | +++ (Degradation > 70%) | +++ (Degradation > 70%) |  |  | 
21 | O=C1CCN(c2ccc(N3CCN(C(=O)[C@H]4CN(c5ccc(Nc6ncc7c(n6)-c6ccc(Cl)cc6C(c6c(F)cccc6F)=NC7)cc5)CCO4)CC3)nc2)C(=O)N1 [Compound A325] | < 1000 | +++ (Degradation > 70%) | +++ (Degradation > 70%) |  |  | 
22 | N#Cc1cc(N2CCC(=O)NC2=O)cnc1N1CCN(C(=O)C2CCN(c3ccc(Nc4ncc5c(n4)-c4ccc(Cl)cc4C(c4c(F)cccc4F)=NC5)cc3)CC2)CC1 [Compound A326] | < 1000 | +++ (Degradation > 70%) | +++ (Degradation > 70%) |  |  | 
23 | O=C1CCN(c2ccc(N3CC4(CC(N5CCN(c6ccc(Nc7ncc8c(n7)-c7ccc(Cl)cc7C(c7c(F)cccc7F)=NC8)cc6)C(=O)C5)CO4)C3)nc2)C(=O)N1 (stereo not drawn) [Compound A329] | < 1000 | +++ (Degradation > 70%) | +++ (Degradation > 70%) |  |  | 
24 | O=C1CCN(c2ccc(N3CC4(CC(N5CCN(c6ccc(Nc7ncc8c(n7)-c7ccc(Cl)cc7C(c7nccs7)=NC8)cc6)C(=O)C5)CO4)C3)nc2)C(=O)N1 (stereo not drawn) [Compound A330] | < 1000 | +++ (Degradation > 70%) | +++ (Degradation > 70%) |  |  | 
